Laboratory results reported in PMC7508162 (Frontiers in Pharmacology, 2020).

What was measured:
[1] = target: T1, human NPP3 (Homo sapiens, UniProt O14638); experiment: NPP3 assay with ϵ-NAD+ as substrate; assay type: biochemical; conditions: for inhibition at 10 µM: 10 µM test compound; for Ki: 20 µM ϵ-NAD+, read-out: Ki ± SEM
T1 construct: the catalytic domains of the enzymes were amplified and sub-cloned into the expression vector pACGP67 A/B; 9xHis (C); made in house; host or cells: Sf9 insect cells (baculovirus, pACGP67 A/B)
T1 sequence (O14638 31-875 limits assumed): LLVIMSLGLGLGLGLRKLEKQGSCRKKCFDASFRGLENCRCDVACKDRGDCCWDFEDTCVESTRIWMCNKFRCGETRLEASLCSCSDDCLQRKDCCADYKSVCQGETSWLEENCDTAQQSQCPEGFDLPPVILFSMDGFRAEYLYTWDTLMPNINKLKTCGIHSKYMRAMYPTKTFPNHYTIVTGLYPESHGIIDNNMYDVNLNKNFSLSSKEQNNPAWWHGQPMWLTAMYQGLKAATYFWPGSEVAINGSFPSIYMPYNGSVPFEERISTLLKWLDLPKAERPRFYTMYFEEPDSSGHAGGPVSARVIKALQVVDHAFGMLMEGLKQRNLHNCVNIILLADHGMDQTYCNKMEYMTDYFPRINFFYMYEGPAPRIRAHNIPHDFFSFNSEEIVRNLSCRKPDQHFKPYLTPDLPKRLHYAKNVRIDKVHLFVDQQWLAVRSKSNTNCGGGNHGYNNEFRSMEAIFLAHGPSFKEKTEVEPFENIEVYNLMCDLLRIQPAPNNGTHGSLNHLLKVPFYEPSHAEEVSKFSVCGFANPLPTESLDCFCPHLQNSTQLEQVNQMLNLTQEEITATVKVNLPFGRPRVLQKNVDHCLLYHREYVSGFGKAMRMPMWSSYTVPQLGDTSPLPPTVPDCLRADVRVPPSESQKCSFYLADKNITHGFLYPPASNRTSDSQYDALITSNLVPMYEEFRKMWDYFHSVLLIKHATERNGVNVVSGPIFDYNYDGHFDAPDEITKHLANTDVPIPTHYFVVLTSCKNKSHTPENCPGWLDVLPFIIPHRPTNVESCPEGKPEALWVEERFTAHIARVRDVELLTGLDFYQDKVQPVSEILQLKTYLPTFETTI
Description: The cDNAs of the human enzymes NPP1, NPP3, NPP5, CD38 and CD73 (Genbank accession no. NM_006258, NM_005021, NM_021572, NM_ 001775, and NM_002526, respectively) were obtained from Origene (Rockville, USA). Soluble enzymes were produced as previously reported with some modifications ([Lee et al., 2015]; [Junker et al., 2019]). Briefly, the catalytic domains of the enzymes were amplified and sub-cloned into the expression vector pACGP67 A/B modified with the addition of 9 x histidine tag (His-tag) at the C-terminus (except for NPP1). The plasmids were transfected in Sf9 insect cells using Cellfectin™ II Reagent (Thermo Fisher Scientific, MA, USA) and ProEasy™ baculovirus linearized DNA (Cat.#A10S, AB Vector, LLC). Protein expression was conducted for 48 h at 27°C. The signal peptide sequence of the expression vector shuttled the proteins into the supernatant. The supernatant medium was collected, and the enzymes were purified using HisPur™ Ni^2+-NTA spin columns according to the manufacturer’s protocol. The protein concentration was determined by the method previously described by [Lowry et al. (1951)].
The assays were performed in analogy to published procedures ([Blacher et al., 2015]). The enzymatic activity of human NPP3 and NPP5 (soluble forms expressed in insect cells and purified as previously described ([Lee et al., 2015]; [Lopez et al., 2020]) was measured using 1,N^6-etheno-nicotinamide adenine dinucleotide (ϵ-NAD^+) as a substrate, which is hydrolyzed to fluorescent 1,N^6-etheno-AMP (ϵ-AMP). The enzymatic reactions were performed in reaction buffer [10 mM N-cyclohexyl-2-aminoethanesulfonic acid (CHES), 2 mM CaCl2, and 1 mM MgCl2, pH 9.0 in H2O]. Purified NPP3 (90 ng) or NPP5 (400 ng), 20 µM of ϵ-NAD^+ and 10 µM of the test compound were incubated for 30 min at 37°C. The relative fluorescence at 270 nm excitation and 420 nm emission was detected by a fluorescence microplate reader (Flexstation, Medical Devices LLC. USA, Softmax Pro software to collect the data).

[2] = Metabolic stability in mouse liver microsomes; assay type: in vitro ADME; conditions: both sexes; mouse liver microsomes 0.5 mg/mL; compound 1 μM
Method: The experiments were performed by Pharmacelsus, Saarbrücken, Germany (https://www.pharmacelsus.com/services/in-vitro-adme/) using human and mouse liver microsomes (0.5 mg/mL, mixed gender, pooled). Compounds were tested at a concentration of 1 μM. Data points represent means of two separate experiments performed in duplicates.

SMILES	inhibition at 10 µM [1] [%]	Ki [1] [µM]	half-life at 1 μM [2] [min]
CCN(CC)c1ncnc2c1ncn2[C@@H]1O[C@H](COP(=O)(O)OP(=O)(O)C(Br)(Br)P(=O)(O)O)[C@@H](O)[C@H]1O [ARL67156, (Dibromo((((((2R,3S,4R,5R)-5-(6-(diethylamino)-9H-purin-9-yl)-3,4-dihydroxytetrahydrofuran-2-yl)methoxy)-(hydroxy)-phosphoryl)oxy)(hydroxy)phosphoryl)methyl)-phosphonic Acid, reference compound]	13	> 10	< 1
CCCCSc1nc2c(N)ncnc2n1[C@@H]1O[C@H](COP(=O)(O)OP(=O)(O)C(Br)(Br)P(=O)(O)O)[C@@H](O)[C@H]1O [Compound 31, (((((((2R,3S,4R,5R)-5-(6-Amino-8-(butylthio)-9H-purin-9-yl)-3,4-dihydroxytetrahydrofuran-2-yl)methoxy)(hydroxy)-phosphoryl)oxy)(hydroxy)phosphoryl)dibromomethyl)-phosphonic Acid]	8	> 10	< 1
CCCCNc1nc2c(NC)ncnc2n1[C@@H]1O[C@H](COP(=O)(O)OP(=O)(O)C(Br)(Br)P(=O)(O)O)[C@@H](O)[C@H]1O [Compound 33, (Dibromo((((((2R,3S,4R,5R)-5-(8-(butylamino)-6-(methylamino)-9H-purin-9-yl)-3,4-dihydroxy-tetrahydrofuran-2-yl)methoxy)(hydroxy)phosphoryl)oxy)-(hydroxy)phosphoryl)methyl)-phosphonic Acid]	8	> 10	< 1
